Measurements reported in patent publication US11053204B2, “Pyrimidinyloxy benzene derivatives as herbicides” (FMC Corporation, priority 2015, dated 2021).

Experiments:
Test in all cases: Test C postemergence, plant response rating
Format in all cases: in vivo
[1] = tested on: blackgrass (Alopecurus myosuroides); settings: Alopecurus myosuroides, post-emergence
Method in brief: (§1)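 Pre-emergence: seeds sown in loam soil–sand blend or silt loam and sprayed with test chemicals in a non-phytotoxic solvent mixture with surfactant. Post-emergence: plants 2 to 18 cm (1- to 4-leaf stage) in peat-based potting medium, same formulation. Greenhouse 13 to 15 d; visual rating 0 (no effect) to 100 (complete control) versus controls.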

[2] = tested on: chickweed (common chickweed, Stellaria media); settings: Stellaria media, post-emergence
Method in brief: as §1

[3] = tested on: corn (Zea mays); settings: Zea mays, post-emergence
Method in brief: as §1

[4] = tested on: foxtail, giant (giant foxtail, Setaria faberii); settings: Setaria faberi, post-emergence
Method in brief: as §1

[5] = tested on: galium (catchweed bedstraw, Galium aparine); settings: Galium, post-emergence
Method in brief: as §1

[6] = tested on: kochia (Kochia scoparia); settings: Bassia scoparia, post-emergence
Method in brief: as §1

[7] = tested on: lambsquarters (Chenopodium album); settings: Chenopodium album, post-emergence
Method in brief: as §1

[8] = tested on: morningglory (Ipomoea coccinea); settings: Ipomoea, post-emergence
Method in brief: as §1

[9] = tested on: nutsedge, yellow (yellow nutsedge, Cyperus esculentus); settings: Cyperus, post-emergence
Method in brief: as §1

[10] = tested on: oat, wild (wild oat Avena fatua); settings: Avena fatua, post-emergence
Method in brief: as §1

[11] = tested on: oilseed rape (Brassica napus); settings: Brassica napus, post-emergence
Method in brief: as §1

[12] = tested on: ragweed (common ragweed, Ambrosia elatior); settings: Ambrosia artemisiifolia, post-emergence
Method in brief: as §1

[13] = tested on: soybean (Glycine max); settings: Glycine max, post-emergence
Method in brief: as §1

[14] = tested on: velvetleaf (Abutilon theophrasti); settings: Abutilon theophrasti, post-emergence
Method in brief: as §1

[15] = tested on: wheat (winter wheat, Triticum aestivum); settings: Triticum aestivum, post-emergence
Method in brief: as §1

[16] = 62 g ai/ha, scale 0 to 100 (0 no effect, 100 complete control)
[17] = 125 g ai/ha, scale 0 to 100 (0 no effect, 100 complete control)

**Q.** What does the source list for CC(CC(F)(F)F)OC(=O)c1c(Br)cccc1Oc1ncc(Cl)cn1 (stereo not drawn) [Compound 16, 3,3,3-trifluoro-1-methylpropyl 2-bromo-6-[(5-chloro-2-pyrimidinyl)oxy]benzoate]?
**A.** pest or weed control at 16 g/ha ([1]; 16 g ai/ha, scale 0 to 100): 0%; pest or weed control at 31 g/ha ([1]; 31 g ai/ha, scale 0 to 100): 0%; pest or weed control at 62 g/ha [1, 16]: 0%; pest or weed control at 125 g/ha [1, 17]: 5%; pest or weed control at 16 g/ha ([2]; 16 g ai/ha, scale 0 to 100): 20%; pest or weed control at 31 g/ha ([2]; 31 g ai/ha, scale 0 to 100): 20%; pest or weed control at 62 g/ha [2, 16]: 50%; pest or weed control at 125 g/ha [2, 17]: 80%; Corn plant response rating (crop injury, 0 = no effect, 100 = complete kill) at 16 g/ha ([3]; 16 g ai/ha, scale 0 to 100): 5%; Corn plant response rating (crop injury, 0 = no effect, 100 = complete kill) at 31 g/ha ([3]; 31 g ai/ha, scale 0 to 100): 15%; plant injury at 62 g/ha [3, 16]: 15%; plant injury at 125 g/ha [3, 17]: 20%; pest or weed control at 16 g/ha ([4]; 16 g ai/ha, scale 0 to 100): 10%; pest or weed control at 31 g/ha ([4]; 31 g ai/ha, scale 0 to 100): 20%; pest or weed control at 62 g/ha [4, 16]: 30%; pest or weed control at 125 g/ha [4, 17]: 35%; pest or weed control at 16 g/ha ([5]; 16 g ai/ha, scale 0 to 100): 45%; pest or weed control at 31 g/ha ([5]; 31 g ai/ha, scale 0 to 100): 50%; pest or weed control at 62 g/ha [5, 16]: 55%; pest or weed control at 125 g/ha [5, 17]: 55%; pest or weed control at 16 g/ha ([6]; 16 g ai/ha, scale 0 to 100): 40%; pest or weed control at 31 g/ha ([6]; 31 g ai/ha, scale 0 to 100): 50%; pest or weed control at 62 g/ha [6, 16]: 80%; pest or weed control at 125 g/ha [6, 17]: 90%; pest or weed control at 16 g/ha ([7]; 16 g ai/ha, scale 0 to 100): 40%; pest or weed control at 31 g/ha ([7]; 31 g ai/ha, scale 0 to 100): 50%; pest or weed control at 62 g/ha [7, 16]: 40%; pest or weed control at 125 g/ha [7, 17]: 60%; pest or weed control at 16 g/ha ([8]; 16 g ai/ha, scale 0 to 100): 5%; pest or weed control at 31 g/ha ([8]; 31 g ai/ha, scale 0 to 100): 30%; pest or weed control at 62 g/ha [8, 16]: 40%; pest or weed control at 125 g/ha [8, 17]: 75%; pest or weed control at 16 g/ha ([9]; 16 g ai/ha, scale 0 to 100): 0%; pest or weed control at 31 g/ha ([9]; 31 g ai/ha, scale 0 to 100): 5%; pest or weed control at 62 g/ha [9, 16]: 10%; pest or weed control at 125 g/ha [9, 17]: 20%; pest or weed control at 16 g/ha ([10]; 16 g ai/ha, scale 0 to 100): 0%; pest or weed control at 31 g/ha ([10]; 31 g ai/ha, scale 0 to 100): 5%; pest or weed control at 62 g/ha [10, 16]: 5%; pest or weed control at 125 g/ha [10, 17]: 10%; plant injury at 16 g/ha ([11]; 16 g ai/ha, scale 0 to 100): 15%; plant injury at 31 g/ha ([11]; 31 g ai/ha, scale 0 to 100): 35%; plant injury at 62 g/ha [11, 16]: 60%; plant injury at 125 g/ha [11, 17]: 70%; pest or weed control at 16 g/ha ([12]; 16 g ai/ha, scale 0 to 100): 20%; pest or weed control at 31 g/ha ([12]; 31 g ai/ha, scale 0 to 100): 10%; pest or weed control at 62 g/ha [12, 16]: 10%; pest or weed control at 125 g/ha [12, 17]: 40%; plant injury at 16 g/ha ([13]; 16 g ai/ha, scale 0 to 100): 15%; plant injury at 31 g/ha ([13]; 31 g ai/ha, scale 0 to 100): 35%; plant injury at 62 g/ha [13, 16]: 50%; plant injury at 125 g/ha [13, 17]: 50%; pest or weed control at 16 g/ha ([14]; 16 g ai/ha, scale 0 to 100): 20%; pest or weed control at 31 g/ha ([14]; 31 g ai/ha, scale 0 to 100): 25%; pest or weed control at 62 g/ha ([14]; 62 g ai/ha, scale 0 to 100 (0 no effect, 100 complete control), read-out: Velvetleaf plant response rating): 30%; pest or weed control at 125 g/ha [14, 17]: 50%; plant injury at 16 g/ha ([15]; 16 g ai/ha, scale 0 to 100): 0%; plant injury at 31 g/ha ([15]; 31 g ai/ha, scale 0 to 100): 0%; plant injury at 62 g/ha ([15]; 62 g ai/ha, scale 0 to 100 (0 no effect, 100 complete control), read-out: Wheat plant response rating): 0%; plant injury at 125 g/ha [15, 17]: 0%
